Patent US9958439B2, “Carbohydrate detection” (RICHTER LIFE SCIENCE DEVELOPMENT AB, priority 2012, dated 2018)
Read-outs that look alike come from different tables or passages of the source.

Columns and labels:
[1] = system: biofilm of S. enteritidis wt strain 3934 and isogenic mutants ΔbscA, ΔcsgA, ΔcsgD; experiment: LCO assay for fluorescence confocal analysis of biofilm and biofilm morphology; type: cell-based, Salmonella enteritidis; settings: for fluorescent signal from the LCO on biofilm versus phase contrast microscopy: 2 μg/ml LCO, fixed and washed cover-slip biofilm
Excerpt: Fluorescence confocal analysis (left side) and phase contrast analysis (right side) of the same slide are shown side by side.
Glass cover-slips were introduced to the wells of a 6-well plate (according to the set-up shown in FIG. 2A) to provide surfaces for biofilm formation, which at the end of experiment could be easily removed for microscope analysis. To prepare for the biofilm experiment, individual cultures of S. enteritidis wt strain 3934 and isogenic mutants ΔbscA, ΔcsgA, and ΔcsgD were grown in LB medium in flasks overnight. Each culture was diluted 100-fold in fresh LB and cultivated in a shaking incubator (230 rpm) at 37° C. to OD600=0.6. Cultures were diluted to a culture density of 10^5 CFU/ml in LB without salt and dispensed into the cover-slip containing 6 well plates in 8 ml aliquots. After incubating the plates for 48 h at 28° C., glass cover-slips were removed and washed twice with PBS before fixation in 4 ml of 4% formaldehyde for 1 h. […] PBS functioned as the negative control, used to assess the level of auto-fluorescence. Treated slides were then washed twice with PBS and mounted with Vectashield® for fluorescence-based confocal laser scanning microscopy analysis. Specifically, the edge of the biofilm formed at the liquid air interface was visualized using the appropriate fluorescence filters. […] The right side is an overlay of an optical inspection of bacterial presence by phase contrast with LCO fluorescence. Phase contrast is a traditional method for visual confirmation of biofilm attachment on surfaces.

[2] = system: biofilm (curli, cellulose) of S. enteritidis 3934 wt and isogenic mutants; experiment: Real time tracking of biofilm formation with h-FTAA; type: cell-based, Salmonella enteritidis; settings: 2 μg/ml in culture, curli Ex 405/Em 556 nm, cellulose Ex 500/Em 600 nm, hourly over 48 h
Description: A) comparison of OD600 (. . . ) against GFP signal (_) of a wt biofilm culture over 48 hours; B) correlation of OD600 against GFP signal; […].
The turbidity of a bacterial culture, measured by absorbance at OD600, is used to define culture density. Expression of GFP provides a direct representation of bacterial growth and culture density. S. enteritidis 3934 wt and isogenic mutants ΔbscA, ΔcsgA, and ΔcsgD were transformed with the plasmid P2777 which carries the gfp gene for a more direct representation of culture density through fluorescence detection. […] […]. RFU data of GFP and h-FTAA from the four plates were combined in a single plot to visualize the hourly change in signals over time.

[3] = for RFU change (Correlation analysis) / RFU change (Signal deviation with increasing [Carbohydrate]) / λmax change: 3 μM probe; for RFU change (Correlation analysis): probe-specific excitation λ, emission 545 nm; for RFU change (Signal deviation with increasing [Carbohydrate]) / λmax change: spectral analysis, Excitation 300-500, Emission 545; for carbohydrate can be detected and/or differentiated by the LCO: conclusion from change in signal magnitude and/or shift in λmax; for Gradient Parameters (gradient of regression line) / Linear relationship / Quality of Gradient: linear regression
Method in brief: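 Each LCO probe at 3 μM was added to two-fold serial dilutions of carbohydrate in dH2O (10–0.039 mg/ml for β-1,3-glucan, cellulose, chitin; 5–0.019 mg/ml for the others), run in triplicate. Excitation spectra were scanned 300–500 nm with emission at 545 nm. Detection was a reproducible λmax and/or RFU shift versus negative control, with linear regression of RFU against concentration.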

[4] = Method in brief: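 LCO probes (3 μM) were added to serial two-fold dilutions of carbohydrate suspensions in dH2O, with excitation scanned 300–500 nm and emission at 545 nm. Detection was a reproducible λmax and/or RFU change versus no-carbohydrate control. RFU was regressed linearly against concentration at the λmax or the lowest-background excitation.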
[5] = remark: listed apart in the source
Method in brief: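 LCO probes at 3 μM mixed with serial two-fold carbohydrate dilutions in water (10–0.039 or 5–0.019 mg/ml), run in triplicate. Excitation scanned 300–500 nm with emission at 545 nm; detection based on reproducible λmax or RFU shift against the no-carbohydrate control, with linear regression of RFU on concentration.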

[6] = for RFU change (Correlation analysis): probe-specific excitation λ, emission 545 nm
Method in brief: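 LCO probes at 3 μM mixed with serial two-fold dilutions of carbohydrate in dH2O (10–0.039 or 5–0.019 mg/ml, depending on carbohydrate), in triplicate. Excitation scanned 300–500 nm or fixed per probe (λmax or lowest background), emission at 545 nm. Detection taken as reproducible λmax/RFU shift vs no-carbohydrate control; RFU regressed linearly on concentration.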

[7] = for RFU change (Correlation analysis): probe-specific excitation λ, emission 545 nm; for carbohydrate can be detected and/or differentiated by the LCO: conclusion from change in signal magnitude and/or shift in λmax; for Gradient Parameters (gradient of regression line) / Linear relationship / Quality of Gradient: linear regression
Method in brief: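 LCO probes at 3 μM mixed with serial twofold carbohydrate dilutions in dH2O (10–0.039 or 5–0.019 mg/ml, depending on carbohydrate). Excitation scanned 300–500 nm, emission read at 545 nm; detection defined as reproducible shift in λmax and/or RFU relative to negative control, with linear regression of RFU against concentration.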

[8] = remark: listed apart in the source
Method in brief: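 3 μM of each LCO probe was added to serial two-fold carbohydrate dilutions in water (10–0.039 or 5–0.019 mg/ml). Excitation spectra were scanned 300–500 nm with emission at 545 nm, in triplicate. Detection was defined as a reproducible shift in λmax and/or RFU versus negative control, with linear regression of RFU against concentration.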

[9] = system: biofilm (curli, cellulose) of S. enteritidis wt strain 3934 and isogenic mutants; settings: 2 μg/ml LCO, unprocessed cultures, excitation 300-500 nm, emission 545 nm
Description: A fresh overnight culture of the clinically derived S. enteritidis wt strain 3934 and isogenic mutants (ΔbscA; ΔcsgA and ΔcsgD) was inoculated into fresh LB and cultivated at 37° C. to OD600=0.6. […] 50 μl of each culture was next inoculated in triplicates into separate wells of 96-well plates and incubated at 28° C. for 48 hours.
After removing the biofilm cultures from the incubator, no processing steps were implemented before the detection of LCO signals. […] Emission spectra for curli bound LCOs was collected by reading the emission signal between 500-700 nm when the sample was excited at 405 nm. Emission spectra for cellulose bound LCOs was collected by reading the emission signal between 520-700 nm when the sample was excited at 500 nm.

[10] = β-1,3-glucan concentration vs RFU
[11] = Sodium alginate 5-0.019 mg/ml, 3 μM probe, spectral analysis, Excitation 300-500, Emission 545
[12] = sodium alginate concentration vs RFU, linear regression
[13] = glucose concentration vs RFU, linear regression
[14] = Cellulobiose 5-0.019 mg/ml, 3 μM probe, spectral analysis, Excitation 300-500, Emission 545
[15] = amylose concentration vs RFU, linear regression
[16] = cellulobiose concentration vs RFU, linear regression
[17] = Glycogen 5-0.019 mg/ml, 3 μM probe, spectral analysis, Excitation 300-500, Emission 545
[18] = Chondroitin Sulfate A 5-0.019 mg/ml, 3 μM probe, spectral analysis, Excitation 300-500, Emission 545
[19] = Chondroitin Sulfate A concentration vs RFU, linear regression

O=C(O)Cc1cc(-c2ccc(-c3ccc(C(=O)O)s3)s2)sc1-c1ccc(-c2sc(-c3ccc(-c4ccc(C(=O)O)s4)s3)cc2CC(=O)O)s1 [h-FTAA, hepta Formic Thiophene Acetic Acid]
fluorescent signal from the LCO on biofilm versus phase contrast microscopy [1]: coincides with visible bacteria aggregates | fluorescent signal with cellulose+ curli− ΔcsgA biofilm ([1]; 2 μg/ml, ΔcsgA, confocal microscopy): gave a fluorescent signal | real time analysis of biofilm formation [2]: enables real time analysis of biofilm formation

Cl.Cl.c1csc(-c2cc(CCn3ccnc3)c(-c3ccc(-c4sc(-c5cccs5)cc4CCn4ccnc4)s3)s2)c1 [pHTIm, penta Hydrogen Thiophene Imidazole]
RFU change (Correlation analysis) ([3]; Cellulose 10-[…]): Increase | RFU change (Signal deviation with increasing [Carbohydrate]) ([3]; Cellulose 10-[…]): Increase | λmax change ([3]; Cellulose 10-[…]): Redshift | carbohydrate can be detected and/or differentiated by the LCO ([3]; Cellulose): can be detected and/or differentiated | RFU change (Correlation analysis) ([3]; Chitin 10-[…]): Decreases | RFU change (Signal deviation with increasing [Carbohydrate]) ([3]; Chitin 10-[…]): Decrease | λmax change ([3]; Chitin 10-[…]): Redshift | carbohydrate can be detected and/or differentiated by the LCO ([3]; Chitin): can be detected and/or differentiated | Gradient Parameters (gradient of regression line) ([3]; cellulose concentration vs RFU): 3063 ± 564.3 | Linear relationship ([3]; cellulose concentration vs RFU): Significant | Quality of Gradient ([3]; cellulose concentration vs RFU): Positive | Gradient Parameters (gradient of regression line) ([3]; chitin concentration vs RFU): −383.6 ± 71.4 | Linear relationship ([3]; chitin concentration vs RFU): Significant | Quality of Gradient ([3]; chitin concentration vs RFU): Negative | Sensitivity ([3]; to cellulose): Yes | Sensitivity ([3]; to chitin): Yes | Sensitivity ([3]; to β-1,3-glucan): No | RFU change (Correlation analysis) ([3]; β-1,3-glucan 10-[…]): Decrease | RFU change (Signal deviation with increasing [Carbohydrate]) ([3]; β-1,3-glucan 10-[…]): Decrease | λmax change ([3]; β-1,3-glucan 10-[…]): Redshift | Gradient Parameters (gradient of regression line) [3, 10]: −177.1 ± 89.6 | Quality of Gradient [3, 10]: Horizontal | RFU change (Correlation analysis) ([4]; Sodium alginate 5-0.019 mg/ml, 3 μM probe, probe-specific excitation λ, emission 545 nm): Increases | RFU change (Signal deviation with increasing [Carbohydrate]) [4, 11]: Increases | λmax change [4, 11]: Redshift | carbohydrate can be detected and/or differentiated by the LCO ([4]; Sodium alginate, conclusion from change in signal magnitude and/or shift in λmax): can be detected and/or differentiated | Gradient Parameters (gradient of regression line) [4, 12]: 266 ± 29.2 | Linear relationship [4, 12]: Significant | Quality of Gradient [4, 12]: Positive | Sensitivity ([4]; to sodium alginate): Yes | RFU change (Correlation analysis) ([5]; Glucose 5-0.019 mg/ml, 3 μM probe, probe-specific excitation λ, emission 545 nm): Unclear | RFU change (Signal deviation with increasing [Carbohydrate]) ([5]; Glucose 5-0.019 mg/ml, 3 μM probe, spectral analysis, Excitation 300-500, Emission 545): Unclear | Gradient Parameters (gradient of regression line) [5, 13]: 10.9 ± 25.5 | Quality of Gradient [5, 13]: Horizontal | Sensitivity ([5]; to glucose): No | RFU change (Correlation analysis) ([6]; Amylose 5-0.019 mg/ml, 3 μM probe): Decreases | RFU change (Signal deviation with increasing [Carbohydrate]) ([6]; Amylose 5-0.019 mg/ml, 3 μM probe, spectral analysis, Excitation 300-500, Emission 545): Decreases | carbohydrate can be detected and/or differentiated by the LCO ([6]; Amylose, conclusion from change in signal magnitude and/or shift in λmax): can be detected and/or differentiated | RFU change (Correlation analysis) ([6]; Cellulobiose 5-0.019 mg/ml, 3 μM probe): Unclear | RFU change (Signal deviation with increasing [Carbohydrate]) [6, 14]: Increases | λmax change [6, 14]: No change | Gradient Parameters (gradient of regression line) [6, 15]: −655 ± 110 | Linear relationship [6, 15]: Significant | Quality of Gradient [6, 15]: Negative | Gradient Parameters (gradient of regression line) [6, 16]: 75.1 ± 61.5 | Quality of Gradient [6, 16]: Horizontal | Sensitivity ([6]; to amylose): Yes | Sensitivity ([6]; to cellulobiose): No | RFU change (Correlation analysis) ([7]; Glycogen 5-0.019 mg/ml, 3 μM probe): Increases | RFU change (Signal deviation with increasing [Carbohydrate]) [7, 17]: Increases | λmax change [7, 17]: Redshift | carbohydrate can be detected and/or differentiated by the LCO ([7]; Glycogen): can be detected and/or differentiated | RFU change (Correlation analysis) ([7]; Heparin 5-0.019 mg/ml, 3 μM probe): Increases | RFU change (Signal deviation with increasing [Carbohydrate]) ([7]; Heparin 5-0.019 mg/ml, 3 μM probe, spectral analysis, Excitation 300-500, Emission 545): Unclear | carbohydrate can be detected and/or differentiated by the LCO ([7]; Heparin): can be detected and/or differentiated | Gradient Parameters (gradient of regression line) ([7]; glycogen concentration vs RFU): 835.8 ± 26.6 | Linear relationship ([7]; glycogen concentration vs RFU): Significant | Quality of Gradient ([7]; glycogen concentration vs RFU): Positive | Gradient Parameters (gradient of regression line) ([7]; heparin concentration vs RFU): 96.3 ± 36.8 | Linear relationship ([7]; heparin concentration vs RFU): Significant | Quality of Gradient ([7]; heparin concentration vs RFU): Positive | Sensitivity ([7]; to glycogen): Yes | Sensitivity ([7]; to heparin): Yes | RFU change (Correlation analysis) ([8]; Chondroitin Sulfate A 5-0.019 mg/ml, 3 μM probe, probe-specific excitation λ, emission 545 nm): Increases | RFU change (Signal deviation with increasing [Carbohydrate]) [8, 18]: Increases | λmax change [8, 18]: Redshift | Gradient Parameters (gradient of regression line) [8, 19]: 1177 ± 203.6 | Linear relationship [8, 19]: Significant | Quality of Gradient [8, 19]: Positive | carbohydrate can be detected and/or differentiated by the LCO ([8]; Chondroitin sulfate A, conclusion from change in signal magnitude and/or shift in λmax): can be detected and/or differentiated | Sensitivity ([8]; to Chondroitin Sulfate A): Yes

hepta Hydrogen Thiophene Acetic Acid [h-HTAA]
fluorescent signal from the LCO on biofilm versus phase contrast microscopy [1]: coincides with visible bacteria aggregates | differentiation of biofilm morphologies of isogenic mutants by excitation spectra [9]: did not differentiate biofilm morphologies
